Assay results reported in PMC10497945, “Dual-targeting peptides@PMO, a mimetic to the pro-apoptotic protein Smac/DIABLO for selective activation of apoptosis in cancer cells” (Frontiers in Pharmacology, 2023).

Columns and labels:
[1] = tested on: HeLa S-3 cells; test: Resazurin reduction viability assay; details: HeLa, 1, 5, and 25 µM, 48 h, n = 3
Method: For the resazurin-to-resorufin reduction assays, cells were grown in a 96-well plate for 120 min at 37 °C with resazurin solution (0.15 mg/ml) (Sigma-Aldrich, Milan, Italy). The fluorescence of resorufin was quantified on a PerkinElmer EnSpire 2,300 Multilabel Reader (ex 550 nm/em 590 nm). For the Apo-ONE assay, 25,000 cells were seeded in a 96-well white polystyrene microplate (Corning, United States of America). After 24 h, cells were treated for 36 h with oxaliplatin and oxaliplatin+SS35. Cells were then lysed and subjected to caspase-3/7 (DEVDase) activity assays by using the Apo-ONE Homogeneous Caspase-3/7 Assay (Promega, Madison, United States of America) according to the manufacturer’s instructions. After 30 min of incubation, fluorescence was recorded in the linear phase of the kinetics with a Synergy H1 plate reader (BioTek, Winooski, United States of America). For the trypan blue viability assay, cells were harvested, pelleted at 1500 rcf, and incubated for 5 min with a PBS/0.4% Trypan Blue solution (Gibco). At least 300 cells were counted for each condition.
First, Ht-29 and HeLa cells were treated with increasing doses (0.02, 0.04, and 0.06 μg/ml) of SS28, SS35, and SS36 for 48 h, and cell viability was assessed by resazurin reduction assays (Figure 6A). […]

[2] = tested on: Ht-29 cells; test: Resazurin reduction viability assay; format: cell-based, human; details: Ht-29, 1, 5, and 25 µM, 48 h, n = 3
[3] = Determination of PMO peptide functionalization by absorbance; format: physicochemical; details: UV absorbance in ethanol, Phe (257 nm) and Fmoc-Ala (267 nm) calibration curves, PMO baseline subtracted; estimated
Method: To quantify the amounts of peptides on the PMO, a Varian Cary 50 bio benchtop spectrophotometer in the range of 200–800 nm with a 1-nm step was used ([Faura et al. 2021]). The calibration curves were determined by preparing five solutions at known concentrations of Phenylalanine and Fmoc-Alanine used as standards. Briefly, a stock solution of 5 mM Phe in absolute ethanol was diluted to the final concentrations of 0.2 mM, 0.5 mM, […], 2 mM, and 5 mM. A standard solution of 52.7 μM Fmoc-Alanine (Ala) in absolute ethanol was diluted to the concentrations of 20 μM, 10 μM, 5 μM, and 2 μM. The fluorescence signals were recorded for Phenylalanine (Phe: λex 240 nm and λem 282 nm) ([Lakowicz, 2006]) and Fmoc-Ala (λex […] and λem 280 nm) ([Pappas et al., 2014]) and plotted against their respective sample concentrations. […]
The absorbance values of peptides linked to PMOs were adjusted to account for potential interference caused by PMOs, which can scatter or absorb light in the visible and UV ranges, leading to inaccuracies in absorbance measurements of chromophores. The absorbance spectrum of PMO was subtracted from the absorbance spectrum of the sample containing the peptide@PMO. In the region of absorption of the chromophore, we observed a linear and well-defined relationship between the absorbance of PMO and wavelength. […]

Molecule | cytotoxicity of free peptide compared with nanoparticle-conjugated peptide [1] | cytotoxicity of free peptide compared with nanoparticle-conjugated peptide [2] | Peptide/PMO: peptide amount binding for each milligram of PMO [3]
N=C(N)NCCC[C@@H]1NC(=O)[C@H](CCCCN)NC(=O)[C@@H](Cc2ccccc2)NC(=O)[C@H](CC(=O)O)NC(=O)CNC1=O [p28, cyclic[RGDfK]] | significantly attenuated | significantly attenuated | –
FmocAVPI@PMO [Fmoc-protected AVPI peptide conjugated to PMO, apparently the precursor of SS36] | – | – | 0.074 mg
